From patent US20240140941A1, “DERIVATIVE OF 2,5-DIKETOPIPERAZINE COMPOUND, AND PREPARATION METHOD THEREFOR, PHARMACEUTICAL COMPOSITION THEREOF AND USE THEREOF” (DALIAN WZ PROBIOTICS AD HEALTH CO., LTD, priority 2020, published 2024)
Where a name gives a salt, the structure may show the parent alone. Read-outs that look alike come from different tables or passages of the source.

How the values were obtained:
Type in all cases: cell-based, human
BxPC-3 = assay: Inhibition test on cell proliferation (MTT), BxPC-3; details: read-out: IC50 (nM) BxPC-3
Description: (§1) Tumor cells (NCI-H460, BxPC-3, HT-29, HCC-LM3) in the logarithmic growth phase were digested, centrifuged, and the supernatants were removed. Cells were resuspended by adding fresh culture medium, and counted using a cell counting plate. 100 μL of culture medium (containing cells) was added to a 96-well plate according to the standard of 2000 to 6000 cells per well and incubated in an incubator (37° C., 5% CO2) for 24 hours. After the cells were completely adhered to the wall, the test sample and Plinabulin were diluted to different concentrations using fresh culture medium, and 4 wells were set for each concentration. After 72 hours of drug treatment, the culture medium was removed, and 20 μL of MTT at a concentration of 5 mg/mL was added to each well. After 3-4 hours in the incubator, the MTT was discarded, and 100 μL of DMSO was added to each well, and placed in a 96-well plate shaker to completely dissolve the purple formazan. Subsequently, the absorbance (OD value) was detected at a wavelength of 490 nm using a microplate reader. The experiment also required setting up zero-setting wells (blank culture medium, MTT, DMSO). Cell inhibition rate=1−(OD value of drug-dosed group−OD value of zero-setting group)/(OD value of blank group−OD value of zero-setting group)×100%.

HT-29 = assay: Inhibition test on cell proliferation (MTT), HT-29; details: Homo sapiens, HT-29, 72 h, 72 hours of drug treatment
Description: as §1

NCI-H460 = assay: Inhibition test on cell proliferation (MTT), NCI-H460
Description: as §1

HCC-LM3 = assay: Inhibition test on cell proliferation (MTT), HCC-LM3; details: read-out: IC50 (nM) HCC-LM3
Description: as §1

[1] = Homo sapiens, BXPC-3, 72 h, 72 hours of drug treatment, MTT
[2] = Homo sapiens, NCI-H460, 72 h, 72 hours of drug treatment, MTT, read-out: IC50 (nM) NCI-H460
[3] = Homo sapiens, NCI-H460, 72 h, read-out: IC50 (nM) NCI-H460, 72 hours of drug treatment, MTT
[4] = 72 hours of drug treatment, MTT, mesylate
[5] = Homo sapiens, HCCLM3, 72 h, 72 hours of drug treatment, MTT

SMILES	IC50 (BxPC-3; [1]) [nM]	IC50 (NCI-H460; [2]) [nM]	other results
O=c1[nH]/c(=C\c2ncn(CCCN3CCOCC3)c2C2CC2)c(=O)[nH]/c1=C\c1cc(F)ccc1F [PLN-2-8, (3Z,6Z)-3-(2,5-difluorophenyl)methylene-6-((5-cyclopropyl-1-(−3-morpholinyl)propylimidazol-4-yl)methylene)piperazine-2,5-dione]	8.8 ± 0.16	15.2 ± 2.82	IC50 (HT-29): 13.4 ± 2.08 nM
CC(C)c1c(/C=c2\[nH]c(=O)/c(=C/c3cccc(C(=O)c4ccc(F)cc4)c3)[nH]c2=O)ncn1CCCN1CCN(C(=O)C(C)(C)C)CC1 [PLN-2-33, (3Z,6Z)-3-(3-(p-fluorobenzoyl)phenyl)methylene-6-((5-isopropyl-1-(3-N-tert-butyrylpiperazinyl)propylimidazol-4-yl)methylene)piperazine-2,5-dione]			IC50 (BxPC-3; Homo sapiens, BXPC-3, 72 h): 6.39 ± 2.51 nM; IC50 (NCI-H460; [3]): 9.91 ± 2 nM
CC(C)c1c(/C=c2\[nH]c(=O)/c(=C/c3cccc(C(=O)c4ccc(F)cc4)c3)[nH]c2=O)ncn1CCCN1CCN(C(=O)C2CCCC2)CC1 [PLN-2-37, (3Z,6Z)-3-(3-(p-fluorobenzoyl)phenyl)methylene-6-((5-isopropyl-1-(3-N-cyclopentnecarbonylpiperazinyl)propylimidazol-4-yl)methylene)piperazine-2,5-dione]			IC50 (BxPC-3; Homo sapiens, BXPC-3, 72 h): 6.23 ± 0.15 nM; IC50 (NCI-H460; [3]): 7.86 ± 1.37 nM
CC(C)c1c(/C=c2\[nH]c(=O)/c(=C/c3cccc(C(=O)c4ccc(F)cc4)c3)[nH]c2=O)ncn1CCCN1CCN(S(C)(=O)=O)CC1 [PLN-2-42, (3Z,6Z)-3-(3-(p-fluorobenzoyl)phenyl)methylene-6-((5-isopropyl-1-(3-N-methylsulfonylpiperazinyl)propylimidazol-4-yl)methylene)piperazine-2,5-dione]			IC50 (BxPC-3; Homo sapiens, BXPC-3, 72 h): 3.38 ± 0.53 nM; IC50 (NCI-H460; [3]): 6.59 ± 1.29 nM
CC(C)c1c(/C=c2\[nH]c(=O)/c(=C/c3cc(F)ccc3F)[nH]c2=O)ncn1CCCN1CCN(C(=O)OC(C)(C)C)CC1 [PLN-2-48]	33.1 ± 0.98	39.2 ± 1.85	
CC(C)c1c(/C=c2\[nH]c(=O)/c(=C/c3ccc(F)c(F)c3)[nH]c2=O)ncn1CCCN1CCOCC1 [PLN-2-63-2, (3Z,6Z)-3-(3,4-Difluorophenyl)methylene-6-((5-isopropyl-1-(3-morpholinyl)propylimidazol-4-yl)methylene)piperazine-2,5-dione, mesylate]			IC50 (BxPC-3; [4]): 50.9 ± 6.75 nM; IC50 (HCC-LM3; [4]): 69.5 ± 4.26 nM; IC50 (NCI-H460; 72 hours of drug treatment, MTT, mesylate, read-out: IC50 (nM) NCI-H460): 95.9 ± 3.66 nM
CC(=O)N1CCN(CCCn2cnc(/C=c3\[nH]c(=O)/c(=C/c4cccc(F)c4)[nH]c3=O)c2C(C)C)CC1 [PLN-2-64, (3Z,6Z)-3-(3-Fluorophenyl)methylene-6-(5-isopropyl-1-(3-(4-(acetyl)piperazinyl)propylimidazol-4-yl)methylene)piperazine-2,5-dione]	7.7 ± 0.39	18.5 ± 0.3	IC50 (HCC-LM3; [5]): 26.1 ± 2.14 nM
CCC(=O)N1CCN(CCCn2cnc(/C=c3\[nH]c(=O)/c(=C/c4cccc(F)c4)[nH]c3=O)c2C(C)C)CC1 [PLN-2-65, (3Z,6Z)-3-(3-Fluorophenyl)methylene-6-(5-isopropyl-1-(3-(4-(propionyl)piperazinyl)propylimidazol-4-yl)methylene)piperazine-2,5-dione]	10.3 ± 2.18	17.4 ± 1.45	IC50 (HCC-LM3; [5]): 20.9 ± 0.97 nM
CCCC(=O)N1CCN(CCCn2cnc(/C=c3\[nH]c(=O)/c(=C/c4cccc(F)c4)[nH]c3=O)c2C(C)C)CC1 [PLN-2-66, (3Z,6Z)-3-(3-Fluorophenyl)methylene-6-(5-isopropyl-1-(3-(4-(n-butyryl)piperazinyl)propylimidazol-4-yl)methylene)piperazine-2,5-dione]			IC50 (BxPC-3; Homo sapiens, BXPC-3, 72 h): 30.4 ± 0.35 nM; IC50 (HCC-LM3; Homo sapiens, HCCLM3, 72 h): 43.9 ± 7.94 nM; IC50 (NCI-H460; [3]): 40.3 ± 3.72 nM
CC(CN1CCOCC1)Cn1cnc(/C=c2\[nH]c(=O)/c(=C/c3cccc(F)c3)[nH]c2=O)c1C(C)C (stereo not drawn) [PLN-2-67, (3Z,6Z)-3-(3-Fluorophenyl)methylene-6-((5-isopropyl-1-(3-morpholinyl)-2-methylpropylimidazol-4-yl)methylene)piperazine-2,5-dione]	3.73 ± 0.06	8.39 ± 0.58	IC50 (HCC-LM3; [5]): 7.7 ± 0.04 nM

Continued, in another order:

IC50 (BxPC-3; [1]) [nM]	IC50 (NCI-H460; [2]) [nM]	SMILES	other results
5.92 ± 3.74	25.6 ± 9.64	CC(C)c1c(/C=c2\[nH]c(=O)/c(=C/c3cccc(C(=O)c4ccc(F)cc4)c3)[nH]c2=O)ncn1CCCN1CCNCC1 [PLN-2-16, (3Z,6Z)-3-(3-(p-fluorobenzoyl)phenyl)methylene-6-((5-isopropyl-1-(3-piperazinyl)propylimidazol-4-yl)methylene)piperazine-2,5-dione]	IC50 (HT-29): 11.1 ± 1.87 nM
15.3 ± 1.83	23.9 ± 1.02	CC(C)c1c(/C=c2\[nH]c(=O)/c(=C/c3cccc(C(=O)c4ccc(F)cc4)c3)[nH]c2=O)ncn1CCCN1CCN(C)CC1 [PLN-2-21, (3Z,6Z)-3-(3-(p-fluorobenzoyl)phenyl)methylene-6-((5-isopropyl-1-(3-N-methylpiperazinyl)propylimidazol-4-yl)methylene)piperazine-2,5-dione]	IC50 (HT-29): 13.8 ± 3.08 nM
17.5 ± 0.27	20.1 ± 3.67	CCC(CC)C(=O)N1CCN(CCCn2cnc(/C=c3\[nH]c(=O)/c(=C/c4cccc(C(=O)c5ccc(F)cc5)c4)[nH]c3=O)c2C(C)C)CC1 [PLN-2-34, (3Z,6Z)-3-(3-(p-fluorobenzoyl)phenyl)methylene-6-((5-isopropyl-1-(3-N-(2-ethylbutyryl)piperazinyl)propylimidazol-4-yl)methylene)piperazine-2,5-dione]	
2.23 ± 2.2	5.28 ± 0.71	CC(C)c1c(/C=c2\[nH]c(=O)/c(=C/c3cccc(C(=O)c4ccc(F)cc4)c3)[nH]c2=O)ncn1CCCN1CCN(C(=O)C2CC2)CC1 [PLN-2-35, (3Z,6Z)-3-(3-(p-fluorobenzoyl)phenyl)methylene-6-((5-isopropyl-1-(3-N-cyclopropanecarbonylpiperazinyl)propylimidazol-4-yl)methylene)piperazine-2,5-dione]	
4.4 ± 3.1	7.56 ± 0.33	CC(C)=CC(=O)N1CCN(CCCn2cnc(/C=c3\[nH]c(=O)/c(=C/c4cccc(C(=O)c5ccc(F)cc5)c4)[nH]c3=O)c2C(C)C)CC1 [PLN-2-40, (3Z,6Z)-3-(3-(p-fluorobenzoyl)phenyl)methylene-6-((5-isopropyl-1-(3-N-(3,3-dimethyl)acryloylpiperazinyl)propylimidazol-4-yl)methylene)piperazine-2,5-dione]	
3.25 ± 2.13	5.55 ± 1.68	CC(C)c1c(/C=c2\[nH]c(=O)/c(=C/c3cccc(C(=O)c4ccc(F)cc4)c3)[nH]c2=O)ncn1CCCN1CCN(C(=O)c2ccccc2)CC1 [PLN-2-41, (3Z,6Z)-3-(3-(p-fluorobenzoyl)phenyl)methylene-6-((5-isopropyl-1-(3-N-benzoylpiperazinyl)propylimidazol-4-yl)methylene)piperazine-2,5-dione]	
3.84 ± 0.12	8.68 ± 0.78	CC(C)NC(=O)N1CCN(CCCn2cnc(/C=c3\[nH]c(=O)/c(=C/c4cccc(C(=O)c5ccc(F)cc5)c4)[nH]c3=O)c2C(C)C)CC1 [PLN-2-44, (3Z,6Z)-3-(3-(p-fluorobenzoyl)phenyl)methylene-6-((5-isopropyl-1-(3-N-isopropylaminocarbonylpiperazinyl)propylimidazol-4-yl)methylene)piperazine-2,5-dione]	
1.79 ± 0.49	6.43 ± 1.98	CC(C)c1c(/C=c2\[nH]c(=O)/c(=C/c3cccc(C(=O)c4ccc(F)cc4)c3)[nH]c2=O)ncn1CCCN1CCN(C(=O)NC(C)(C)C)CC1 [PLN-2-45, (3Z,6Z)-3-(3-(p-Fluorobenzoyl)phenyl)methylene-6-((5-isopropyl-1-(3-N-tert-butylaminocarbonylpiperazinyl)propylimidazol-4-yl)methylene)piperazine-2,5-dione]	
9.09 ± 0.89	21.6 ± 0.52	CC(C)c1c(/C=c2\[nH]c(=O)/c(=C/c3cccc(C(=O)c4ccc(F)cc4)c3)[nH]c2=O)ncn1CCCN1CCN(C(=O)NC2CCCC2)CC1 [PLN-2-46, (3Z,6Z)-3-(3-(p-fluorobenzoyl)phenyl)methylene-6-((5-isopropyl-1-(3-N-cyclopentylaminocarbonylpiperazinyl)propylimidazol-4-yl)methylene)piperazine-2,5-dione]	
3.62 ± 0.48	6.56 ± 0.32	CC(C)c1c(/C=c2\[nH]c(=O)/c(=C/c3cccc(C(=O)c4ccc(F)cc4)c3)[nH]c2=O)ncn1CCCN1CCN(C(=O)NC2CCCCC2)CC1 [PLN-2-47, (3Z,6Z)-3-(3-(p-fluorobenzoyl)phenyl)methylene-6-((5-isopropyl-1-(3-N-cyclohexylaminocarbonylpiperazinyl)propylimidazol-4-yl)methylene)piperazine-2,5-dione]	
